According to patent publication US6147097A, “Imidazole derivatives as anti-HIV agents” (Shionogi & Co., Ltd., priority 1994, dated 2000):
Converted amounts (≈) assume the structure as drawn. Counter-ions that a name gives are not always drawn. Like-named read-outs stand apart in the source and are kept apart here.

Assays:
HIV (HTLV-IIIB strain) = assay: microbe, parasite or virus in culture; format: cell-based; conditions: Human immunodeficiency virus 1, IIIB, MT4, 120 h
Outline: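 Protection from virus was read as viable-cell MTT conversion to formazan after 5 days at 37° C. The cultures contained MT-4 cells (3.5×10^4/well), compound dilutions and 60 pfu HIV per well.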

[1] = cytotoxicity in MT-4 cells (MTT, culture medium in place of HIV); format: cell-based; conditions: human, mt-4 cells
Outline: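 Uninfected readout: compound-treated MT-4 cultures, 3.5×10^4 cells/well, received medium in place of virus and were kept 5 days at 37° C. Viability measured by 1 h MTT reduction, solubilized formazan read at 560/690 nm relative to control wells.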

[2] = molecular target: T1, purified recombinant HIV-1 reverse transcriptase (Human immunodeficiency virus type 1 group M subtype B, UniProt P04585); assay: reverse transcriptase inhibition, poly(rA)/(dT) template primer, [3H]dTTP uptake; format: biochemical
T1 construct: purified recombinant HIV-1 reverse transcriptase; made in house; host or cells: Escherichia coli
Outline: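 Inhibition reported as percent reduction of [3H]dTTP incorporation relative to solvent control, after 1 h at 37 °C at pH 8.3. Recombinant RT from E. coli, poly(rA) template with oligo(dT) primer, 4 μM unlabeled dTTP as substrate; product collected on DEAE filter mats.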

[3] = MT-4 cells, 60 pfu HIV per well, 37° C., 5 days, MTT, Tables 1 and 2, read-out: EC50

Structure (SMILES)	EC50 (HIV (HTLV-IIIB strain); [3]) [µg/mL]	CC50 at 120 h [1] [µg/mL]	IC50 [2] [µM]	IC50 ([2]; read-out: RT IC50, pH 8.3, 37° C., 1 hour, Tables 5 and 6) [µM]	EC50 (HIV (HTLV-IIIB strain)) [µg/mL]
CC(C)c1nc(CO)n(CCCCc2ccccc2)c1Sc1cc(Cl)cc(Cl)c1 [Compound I-123, 5-(3,5-dichlorophenylthio)-2-hydroxymethyl-4-isopropyl-1-(4-phenylbutyl)-1H-imidazole]	0.06 (≈ 0.133 µM)	12.5 (≈ 27.8 µM)	77.4		
CC(C)c1nc(CO)n(CCCCCc2ccccc2)c1Sc1cc(Cl)cc(Cl)c1 [Compound I-124, 5-(3,5-dichlorophenylthio)-2-hydroxymethyl-4-isopropyl-1-(5-phenylpentyl)-1H-imidazole]	0.25 (≈ 0.539 µM)	12.5 (≈ 27 µM)	> 216		
CC(C)c1nc(CO)n(CCCCCCc2ccccc2)c1Sc1cc(Cl)cc(Cl)c1 [Compound I-125, 5-(3,5-dichlorophenylthio)-2-hydroxylmethyl-4-isopropyl-1-(6-phenlylhexyl)-1H-imidazole]	0.5 to 1 (≈ 1.05 to 2.09 µM)	12.5 (≈ 26.2 µM)	> 209		
CC(C)c1nc(CO)n(Cc2cccs2)c1Sc1cc(Cl)cc(Cl)c1.Cl [Compound I-126, 5-(3,5-dichlorophenylthio)-2-hydroxymethyl-4-isopropyl-1-(2-thienylmethyl)-1H-imidazole hydrochloride]	0.03	12.5 to 25	30.9		
CC(C)c1nc(CO)n(Cc2ccsc2)c1Sc1cc(Cl)cc(Cl)c1 [Compound I-127, 5-(3,5-dichlorophenylthio)-2-hydroxymethyl-4-isopropyl-1-(13-thienylmethyl)-1H-imidazole hydrochloride]	0.016	12.5 to 25	14.8		
CC(C)c1nc(COC(N)=O)n(Cc2cnc3ccccc3c2)c1Sc1cc(Cl)cc(Cl)c1 [Compound I-128, 2-carbamoyloxymethyl-5-(3,5-dichlorophenylthio)-4-isopropyl-1-(quinolin-3-ylmethyl)-1H-imidazole]	< 0.008	> 100	5.38		
CC(C)c1nc(COC(N)=O)n(CCc2ccccn2)c1Sc1cc(Cl)cc(Cl)c1 [Compound I-129, 2-carbamoyloxymethyl-5-(3,5-dichlorophenylthio)-4-isopropyl-1-(2-(2-pyridyl)ethyl)-1H-imidazole]	0.06 (≈ 0.129 µM)	12.5 to 25 (≈ 26.9 to 53.7 µM)	76.9		
CC(C)c1nc(COC(N)=O)n(CCCc2ccccn2)c1Sc1cc(Cl)cc(Cl)c1 [Compound I-130, 2-carbamoyloxymethyl-5-(3,5-dichlorophenylthio)-4-isopropyl-1-(3-(2-pyridyl)propyl)-1H-imidazole]	< 0.008	6.3 to 12.5 (≈ 13.1 to 26.1 µM)	3.96		
CC(C)c1nc(COC(N)=O)n(Cc2ccc(=O)[nH]c2)c1Sc1cc(Cl)cc(Cl)c1 [Compound I-131, 2-carbamoyloxymethyl-5-(3,5-dichlorophenylthio)-1-(6-oxo-1,6-dihydro-pyridin-3-yl)methyl-4-isopropyl-1H-imidazoles]	0.003 (≈ 0.00642 µM)	38.8 (≈ 83 µM)	2.78		
Cc1ncccc1Cn1c(COC(N)=O)nc(C(C)C)c1Sc1cc(Cl)cc(Cl)c1 [Compound I-133, 2-carbamoyloxymethyl-5-(3,5-dichlorophenylthio)-4-isopropyl-1-(2-methylpyridin-3-ylmethyl)-1H-imidazole]	0.008 (≈ 0.0172 µM)	12.5 (≈ 26.9 µM)	72.2		
CC(C)c1nc(COC(N)=O)n(CCOC(N)=O)c1Sc1cc(Cl)cc(Cl)c1 [Compound I-134, 1-(2-carbamoyloxyethyl)-2-carbamoyloxymethyl-5-(3,5-dichlorophenylthio)-4-isopropyl-1H-imidazole]	0.0013 (≈ 0.00291 µM)	12.5 to 25 (≈ 27.9 to 55.9 µM)	1.54		
CC(C)c1nc(CC(N)=O)n(C)c1Sc1cc(Cl)cc(Cl)c1 [Compound I-135, 2-[5-(3,5-dichlorophenylthio)-4-isopropyl-1-methyl-1H-imidazol-2-yl] acetamide]	0.016 to 0.03 (≈ 0.0447 to 0.0837 µM)	25 to 50 (≈ 69.8 to 140 µM)	10.6		
CC(C)c1nc(CCOCc2ccccc2)n(C)c1Sc1cc(Cl)cc(Cl)c1 [Compound I-136, 2-(2-benzyloxyethyl)-5-(3,5-dichlorophenylthio)-4-isopropyl-1-methyl-1H-imidazole]	0.008 to 0.016 (≈ 0.0184 to 0.0367 µM)	12.5 (≈ 28.7 µM)		4.59	
CCn1c(CCOC(N)=O)nc(C(C)C)c1Sc1cc(Cl)cc(Cl)c1 [Compound I-137, 2-(2-carbamoyloxyethyl)-5-(3,5-dichlorophenylthio)-1-ethyl-4-isopropyl-1H-imidazole]		50 (≈ 124 µM)	8.2		0.004 to 0.008 (≈ 0.00994 to 0.0199 µM)
CC(C)c1nc(CCOC(N)=O)n(Cc2ccncc2)c1Sc1cc(Cl)cc(Cl)c1 [Compound I-138, 2-(2-carbamoyloxyethyl)-5-(3,5-dichlorophenylthio)-4-isopropyl-1-(pyridin-4-yl)methyl-1H-imidazole]	0.008 (≈ 0.0172 µM)	12.5 (≈ 26.9 µM)	3.22		
CC(C)c1nc(CCO)n(Cc2ccc(N)cc2)c1Sc1cc(Cl)cc(Cl)c1 [Compound I-139, 1-(p-aminobenzyl)-5-(3,5-dichlorophenylthio)-2-hydroxyethyl-4-isopropyl-1H-imidazole]	< 0.008	6.3 (≈ 14.4 µM)	3.67		
CC(C)c1nc(CCOC(N)=O)n(Cc2ccc(N)cc2)c1Sc1cc(Cl)cc(Cl)c1 [Compound I-140, 1-(p-aminobenzyl)-2-(2-carbamoyloxyethyl)-5-(3,5-dichlorophenylthio)-4-isopropyl-1H-imidazole]	0.03 to 0.06 (≈ 0.0626 to 0.125 µM)	6.3 to 12.5 (≈ 13.1 to 26.1 µM)	29.8		
CC(C)c1nc(CCO)n(Cc2cccc(N)c2)c1Sc1cc(Cl)cc(Cl)c1 [Compound I-141, I-(m-aminobenzyl)-5-(3,5-dichlorophenylthio)-2-hydroxyethyl-4-isopropyl-1H-imidazole]	< 0.008	25 to 50 (≈ 57.3 to 115 µM)	4.12		
CC(C)c1nc(CCOC(N)=O)n(Cc2cccc(N)c2)c1Sc1cc(Cl)cc(Cl)c1 [Compound I-142, 1-(m-aminobenzyl)-2-(2-carbamoyloxyethyl)-5-(3,5-dichlorophenylthio)-4-isopropyl-1H-imidazole]	0.016 to 0.03 (≈ 0.0334 to 0.0626 µM)	6.3 to 12.5 (≈ 13.1 to 26.1 µM)	25		
CC(C)c1nc(CCO)n(Cc2ccccc2N)c1Sc1cc(Cl)cc(Cl)c1 [Compound I-143]	0.008 (≈ 0.0183 µM)	12.5 (≈ 28.6 µM)	77		
CC(C)c1nc(CCOC(N)=O)n(CCOC(N)=O)c1Sc1cc(Cl)cc(Cl)c1 [Compound I-147, 1,2-di-(2-carbamoyloxyethyl)-5-(3,5-dichlorophenylthio)-4-isopropyl-1H-imidazole]	0.005 (≈ 0.0108 µM)	50 to 100 (≈ 108 to 217 µM)	4.33		
CC(C)c1nc(CCCOC(N)=O)n(C)c1Sc1cc(Cl)cc(Cl)c1 [Compound I-148, 2-(3-carbamoyloxypropyl)-5-(3,5-dichlorophenylthio)-4-isopropyl-1-methyl-1H-imidazole]	0.005 to 0.01 (≈ 0.0124 to 0.0249 µM)	6.3 to 12.5 (≈ 15.7 to 31.1 µM)	0.895		
CCn1c(CCCOC(N)=O)nc(C(C)C)c1Sc1cc(Cl)cc(Cl)c1 [Compound I-149, 2-(3-carbamoyloxypropyl)-5-(3,5-dichlorophenylthio)-1-ethyl-4-isopropyl-1H-imidazole]	0.01 (≈ 0.024 µM)	6.3 (≈ 15.1 µM)	0.769		
CC(C)c1nc(CCCOC(N)=O)n(Cc2ccncc2)c1Sc1cc(Cl)cc(Cl)c1 [Compound I-150, 2-(3-carbamoyloxypropyl)-5-(3,5-dichlorophenylthio)-4-isopropyl-1-(pyridin-4-yl)methyl-1H-imidazole]	0.008 (≈ 0.0167 µM)	6.3 to 12.5 (≈ 13.1 to 26.1 µM)	1.88		
CC(C)c1nc(CCCOC(N)=O)n(CCOC(N)=O)c1Sc1cc(Cl)cc(Cl)c1 [Compound I-151, 1-(2-carbamoyloxyethyl)-2-(3-carbamoyloxypropyl)-5-(3,5-dichlorophenylthio)-4-isopropyl-1H-imidazole]	0.0006 (≈ 0.00126 µM)	50 to 100 (≈ 105 to 210 µM)	6.1		
CC(Cn1c(COC(N)=O)nc(C(C)C)c1Sc1cc(Cl)cc(Cl)c1)OC(N)=O (stereo not drawn) [Compound I-152, 2-carbamoyloxymethyl-1-(2-carbamoyloxypropyl)-5-(3,5-dichlorophenylthio)-4-isopropyl-1H-imidazole]	< 0.008	12.5 to 25 (≈ 27.1 to 54.2 µM)	3.25		
